Source: patent US8969325B2, “TRPV1 antagonists” (AbbVie Inc., priority 2011, dated 2015)

Key:
[1] = molecular target: T1, human TRPV1 (Homo sapiens (Human), UniProt Q8NER1); experiment: Capsaicin Activation Assay (intracellular Ca2+, FLIPR); format: cell-based; conditions: recombinant HEK293 cells expressing hTRPV1, 50 nM capsaicin
In short: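 Ca2+ fluorescence was recorded by FLIPR every 1 to 5 seconds in HEK293 cells, clonally selected for stable human TRPV1 expression and plated one day ahead. Test compounds came as serial dilutions of 10 mM DMSO stocks.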

[2] = molecular target: T1, human TRPV1; experiment: Acid Activation Assay (pH 5.0, intracellular Ca2+, FLIPR); format: cell-based; conditions: percentage of the maximal pH 5.0-induced response remaining; recombinant HEK293 hTRPV1 cells; maximum concentration tested 37.5 μM
In short: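 Readout: peak [Ca2+]i fluorescence over baseline on FLIPR, expressed as percentage remaining of the maximal pH 5.0-evoked signal. Stable hTRPV1-HEK293 cells with Calcium-4 dye received compound (12 half-log concentrations, maximum 37.5 μM) 3 min before acidic pH 5.0 buffer.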

T1 sequence (Q8NER1 whole entry): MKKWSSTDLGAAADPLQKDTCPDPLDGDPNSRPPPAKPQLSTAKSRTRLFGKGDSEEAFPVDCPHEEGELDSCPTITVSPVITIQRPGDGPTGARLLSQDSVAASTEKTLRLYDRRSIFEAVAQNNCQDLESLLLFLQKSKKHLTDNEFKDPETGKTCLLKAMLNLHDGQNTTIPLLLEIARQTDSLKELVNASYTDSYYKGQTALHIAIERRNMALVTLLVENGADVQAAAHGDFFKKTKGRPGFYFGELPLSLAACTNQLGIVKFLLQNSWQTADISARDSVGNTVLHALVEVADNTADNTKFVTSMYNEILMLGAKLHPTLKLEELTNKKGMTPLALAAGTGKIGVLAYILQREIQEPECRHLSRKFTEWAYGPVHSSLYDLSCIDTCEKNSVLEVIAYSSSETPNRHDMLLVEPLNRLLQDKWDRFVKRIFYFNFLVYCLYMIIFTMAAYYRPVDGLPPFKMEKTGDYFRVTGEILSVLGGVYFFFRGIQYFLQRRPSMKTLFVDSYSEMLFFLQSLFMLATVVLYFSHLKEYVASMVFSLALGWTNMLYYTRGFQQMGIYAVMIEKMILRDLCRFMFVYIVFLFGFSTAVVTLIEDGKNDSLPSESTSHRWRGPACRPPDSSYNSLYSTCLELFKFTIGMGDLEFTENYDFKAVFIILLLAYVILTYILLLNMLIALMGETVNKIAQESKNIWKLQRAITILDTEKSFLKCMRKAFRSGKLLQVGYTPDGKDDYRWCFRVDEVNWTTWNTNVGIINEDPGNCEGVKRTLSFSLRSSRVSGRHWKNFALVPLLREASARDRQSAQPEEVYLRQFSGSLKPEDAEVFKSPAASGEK

Compound	IC50 [1]	human TRPV1 H^+ (max % remain) [2]
COCCN(C)C1Cc2ccc(NC(=O)N[C@@H]3CC(CF)(CF)Oc4cc(Cl)ccc43)cc2NC1=O (stereo partly drawn) [Example 306, 1-[(4R)-7-chloro-2,2-bis(fluoromethyl)-3,4-dihydro-2H-chromen-4-yl]-3-{3-[(2-methoxyethyl)(methyl)amino]-2-oxo-1,2,3,4-tetrahydroquinolin-7-yl}urea]	440 nM	31%
O=C1COc2ccc(NC(=O)N[C@@H]3CCOc4cc(C(F)(F)F)ccc43)cc2N1 [Example 121, 1-(3-oxo-3,4-dihydro-2H-1,4-benzoxazin-6-yl)-3-[(4R)-7-(trifluoromethyl)-3,4-dihydro-2H-chromen-4-yl]urea]	> 38000 nM	107%
CCC1(CC)C[C@@H](NC(=O)Nc2ccc3c(c2)NC(=O)CO3)c2ccc(OC(F)(F)F)cc2O1 [Example 111, 1-[(4R)-2,2-diethyl-7-(trifluoromethoxy)-3,4-dihydro-2H-chromen-4-yl]-3-(3-oxo-3,4-dihydro-2H-1,4-benzoxazin-6-yl)urea]	190 nM	71%
O=C1CCc2ccc(NC(=O)N[C@@H]3CC(CF)(CF)Oc4ccccc43)cc2N1 [Example 215, 1-[(4R)-2,2-bis(fluoromethyl)-3,4-dihydro-2H-chromen-4-yl]-3-(2-oxo-1,2,3,4-tetrahydroquinolin-7-yl)urea]	60 nM	49%
O=C(Nc1ccc2c(c1)NC(=O)N(CCO)C2)N[C@@H]1CCc2cc(F)ccc21 [Example 55, 1-[(1R)-5-fluoro-2,3-dihydro-1H-inden-1-yl]-3-[3-(2-hydroxyethyl)-2-oxo-1,2,3,4-tetrahydroquinazolin-7-yl]urea]	7300 nM	36%
CC1(C)C[C@@H](NC(=O)Nc2ccc3c(c2)NC(=O)CO3)c2ccc(C(F)(F)F)cc2O1 [Example 106, 1-[(4R)-2,2-dimethyl-7-(trifluoromethyl)-3,4-dihydro-2H-chromen-4-yl]-3-(3-oxo-3,4-dihydro-2H-1,4-benzoxazin-6-yl)urea]	94 nM	98%
CCCC1(CCC)C[C@@H](NC(=O)Nc2ccc3c(c2)NC(=O)CO3)c2cc(F)ccc2O1 [Example 107, 1-[(4R)-6-fluoro-2,2-dipropyl-3,4-dihydro-2H-chromen-4-yl]-3-(3-oxo-3,4-dihydro-2H-1,4-benzoxazin-6-yl)urea]	400 nM	113%
CCC1(CC)C[C@@H](NC(=O)Nc2ccc3c(c2)NC(=O)N(CCO)C3)c2ccc(Cl)cc2O1 [Example 47, 1-[(4R)-7-chloro-2,2-diethyl-3,4-dihydro-2H-chromen-4-yl]-3-[3-(2-hydroxyethyl)-2-oxo-1,2,3,4-tetrahydroquinazolin-7-yl]urea]	169 nM	0%
O=C1CCc2ccc(NC(=O)N[C@@H]3CCOc4cc(OC(F)(F)F)ccc43)cc2N1 [Example 236, 1-(2-oxo-1,2,3,4-tetrahydroquinolin-7-yl)-3-[(4R)-7-(trifluoromethoxy)-3,4-dihydro-2H-chromen-4-yl]urea]	32 nM	27%
CCC1(CC)C[C@@H](NC(=O)Nc2ccc3c(c2)NC(=O)CO3)c2ccc(Cl)cc2O1 [Example 104, 1-[(4R)-7-chloro-2,2-diethyl-3,4-dihydro-2H-chromen-4-yl]-3-(3-oxo-3,4-dihydro-2H-1,4-benzoxazin-6-yl)urea]	200 nM	80%
CN1Cc2ccc(NC(=O)N[C@@H]3CCOc4cc(OC(F)(F)F)ccc43)cc2NC1=O [Example 195, 1-(3-methyl-2-oxo-1,2,3,4-tetrahydroquinazolin-7-yl)-3-[(4R)-7-(trifluoromethoxy)-3,4-dihydro-2H-chromen-4-yl]urea]	280 nM	49%
1-[(4R)-7-chloro-2,2-diethyl-3,4-dihydro-2H-chromen-4-yl]-3-(1-methyl-2-oxo-1,2,3,4-tetrahydroquinazolin-5-yl)urea [Example 145]	160 nM	7%
O=C1COc2ccc(NC(=O)N[C@@H]3CCOc4c3cccc4C(F)(F)F)cc2N1 [Example 120, 1-(3-oxo-3,4-dihydro-2H-1,4-benzoxazin-6-yl)-3-[(4R)-8-(trifluoromethyl)-3,4-dihydro-2H-chromen-4-yl]urea]	200 nM	103%
CN1C(=O)CCc2ccc(NC(=O)N[C@@H]3CC(C)(C)Oc4c3cccc4C(F)(F)F)cc21 [Example 256, 1-[(4R)-2,2-dimethyl-8-(trifluoromethyl)-3,4-dihydro-2H-chromen-4-yl]-3-(1-methyl-2-oxo-1,2,3,4-tetrahydroquinolin-7-yl)urea]	390 nM	89%
CCCC1(CCC)C[C@@H](NC(=O)Nc2ccc3c(c2)NC(=O)N(C)C3)c2cccc(F)c2O1 [Example 190, 1-[(4R)-8-fluoro-2,2-dipropyl-3,4-dihydro-2H-chromen-4-yl]-3-(3-methyl-2-oxo-1,2,3,4-tetrahydroquinazolin-7-yl)urea]	450 nM	79%
1-[(2S,4R)-2-(fluoromethyl)-2-methyl-7-(trifluoromethyl)-3,4-dihydro-2H-chromen-4-yl]-3-(1-methyl-2-oxo-1,2-dihydroquinolin-5-yl)urea [Example 84]	23 nM	40%

The next lines start with the values.

IC50 [1]	human TRPV1 H^+ (max % remain) [2]	Compound
26 nM	48%	Cn1c(=O)ccc2c(NC(=O)N[C@@H]3CC(CF)(CF)Oc4c3ccc(Cl)c4F)cccc21 [Example 21, 1-[(4R)-7-chloro-8-fluoro-2,2-bis(fluoromethyl)-3,4-dihydro-2H-chromen-4-yl]-3-(1-methyl-2-oxo-1,2-dihydroquinolin-5-yl)urea]
26 nM	68%	CN1C(=O)CCc2ccc(NC(=O)N[C@@H]3C[C@@](C)(C(F)F)Oc4ccccc43)cc21 [Example 292, 1-[(2S,4R)-2-(difluoromethyl)-2-methyl-3,4-dihydro-2H-chromen-4-yl]-3-(1-methyl-2-oxo-1,2,3,4-tetrahydroquinolin-7-yl)urea]
1300 nM	9%	C[C@]1(C(F)F)C[C@@H](NC(=O)Nc2ccc3c(c2)NC(=O)N(CCO)C3)c2ccccc2O1 [Example 60, 1-[(2R,4R)-2-(difluoromethyl)-2-methyl-3,4-dihydro-2H-chromen-4-yl]-3-[3-(2-hydroxyethyl)-2-oxo-1,2,3,4-tetrahydroquinazolin-7-yl]urea]
270 nM	72%	CN1C(=O)CCc2ccc(NC(=O)N[C@@H]3C[C@](C)(C(F)F)Oc4ccccc43)cc21 [Example 293, 1-[(2R,4R)-2-(difluoromethyl)-2-methyl-3,4-dihydro-2H-chromen-4-yl]-3-(1-methyl-2-oxo-1,2,3,4-tetrahydroquinolin-7-yl)urea]
18 nM	65%	Cn1c(=O)ccc2c(NC(=O)N[C@@H]3C[C@@](C)(C(F)(F)F)Oc4ccccc43)cccc21 [Example 25, 1-(1-methyl-2-oxo-1,2-dihydroquinolin-5-yl)-3-[(2S,4R)-2-methyl-2-(trifluoromethyl)-3,4-dihydro-2H-chromen-4-yl]urea]
25 nM	54%	Cn1c(=O)ccc2c(NC(=O)N[C@@H]3C[C@@](C)(C(F)F)Oc4ccccc43)cccc21 [Example 26, 1-[(2S,4R)-2-(difluoromethyl)-2-methyl-3,4-dihydro-2H-chromen-4-yl]-3-(1-methyl-2-oxo-1,2-dihydroquinolin-5-yl)urea]
63 nM	23%	CN1C(=O)NCc2c(NC(=O)N[C@@H]3C[C@@](C)(CF)Oc4cc(Cl)ccc43)cccc21 [Example 14, 1-[(2S,4R)-7-chloro-2-(fluoromethyl)-2-methyl-3,4-dihydro-2H-chromen-4-yl]-3-(1-methyl-2-oxo-1,2,3,4-tetrahydroquinazolin-5-yl)urea]
54 nM	36%	Cn1c(=O)ccc2c(NC(=O)N[C@@H]3CC(CF)(CF)Oc4c(F)cc(F)cc43)cccc21 [Example 72, 1-[(4R)-6,8-difluoro-2,2-bis(fluoromethyl)-3,4-dihydro-2H-chromen-4-yl]-3-(1-methyl-2-oxo-1,2-dihydroquinolin-5-yl)urea]
37 nM	44%	CCC1(CC)C[C@@H](NC(=O)Nc2ccc3c(c2)NC(=O)CC3)c2ccccc2O1 [Example 223, 1-[(4R)-2,2-diethyl-3,4-dihydro-2H-chromen-4-yl]-3-(2-oxo-1,2,3,4-tetrahydroquinolin-7-yl)urea]
15 nM	50%	Cn1c(=O)ccc2c(NC(=O)N[C@@H]3CC(C)(C)Oc4cc(C(F)(F)F)ccc43)cccc21 [Example 91, 1-[(4R)-2,2-dimethyl-7-(trifluoromethyl)-3,4-dihydro-2H-chromen-4-yl]-3-(1-methyl-2-oxo-1,2-dihydroquinolin-5-yl)urea]
1100 nM	57%	CN1Cc2ccc(NC(=O)N[C@@H]3CC(CF)(CF)Oc4ccccc43)cc2NC1=O [Example 197, 1-[(4R)-2,2-bis(fluoromethyl)-3,4-dihydro-2H-chromen-4-yl]-3-(3-methyl-2-oxo-1,2,3,4-tetrahydroquinazolin-7-yl)urea]
51 nM	27%	CN1C(=O)NCc2c(NC(=O)N[C@@H]3C[C@](C)(CF)Oc4cc(Cl)ccc43)cccc21 [Example 7, 1-[(2R,4R)-7-chloro-2-(fluoromethyl)-2-methyl-3,4-dihydro-2H-chromen-4-yl]-3-(1-methyl-2-oxo-1,2,3,4-tetrahydroquinazolin-5-yl)urea]
